Assay results taken from the METLIN SMRT retention time set (Domingo-Almenara et al. 2019).

Assay: gradient 5% acetonitrile 3 min, to 50% in 2 min, to 85% in 15 min, held 3 min, 100 µL/min
Details: column: Zorbax Extend-C18 2.1 x 50 mm; eluents: water / acetonitrile, 0.1% formic acid
In short: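 The mobile phases were water and acetonitrile, each with 0.1% formic acid, pumped at 100 μL/min through a Zorbax Extend-C18 column (2.1 × 50 mm, 1.8 μm). Pure standards were injected as mixtures of ~100 molecules and detected by a quadrupole time-of-flight mass spectrometer in positive and negative ionization mode. Retention time came from computationally picked adduct peaks, each inspected by hand.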

| RP-LC retention time [s] | Structure (SMILES) |
| --- | --- |
| 908 | CCC(=O)N(C1CCOCC1)C1CCN(S(=O)(=O)c2ccccc2CC)CC1 |
| 727 | Cc1ccnc(NC(=O)NCCCSc2nnc(-c3ccccc3)o2)n1 |
| 670 | Cn1c(=O)sc2cc(S(=O)(=O)N3CCC(C(=O)NC4CC4)CC3)ccc21 |
| 918 | Cc1ccc(N2CCC(NC(=O)c3ccc(F)c(F)c3)C2=O)cc1C (configuration not stated) |
| 838 | COC(=O)C1=CN(c2cccc(F)c2)c2ccc(F)cc2S1(=O)=O |
| 797 | Cc1ccc(N2CC(c3noc(-c4ccccn4)n3)CC2=O)cc1 (configuration not stated) |
| 757 | CCOc1ccccc1CNC(=O)C1CCN(S(=O)(=O)c2ccc3c(c2)NC(=O)CO3)CC1 |
| 731 | Cc1ccc2c(=O)c(C(=O)N3CCCCC3)cn(CC(=O)NC3CCCCC3)c2n1 |
| 749 | COc1cc(NC(=O)Cc2csc3nc(-c4ccccc4)cn23)cc(OC)c1OC |
| 765 | O=C1NC2(CCN(C(=O)Nc3ccccc3Cl)CC2)Oc2ccccc21 |
| 862 | COc1ccc(NC(=O)c2ccc(-c3ccsc3)nc2)cc1 |
| 637 | Nc1nc(Nc2ccccc2)n[nH]1 |
| 788 | Cc1cc2c(cc1S(=O)(=O)N1CCCC1C(=O)N1CCc3ccccc31)OCC(=O)N2 (configuration not stated) |
| 957 | O=C(c1ccc(Br)o1)N1CCC(c2cnn(-c3ccccc3)c2)CC1 |
| 856 | COCc1cc2nn(CC(=O)N3CCc4ccccc43)c(=O)n2c(-c2ccccc2)n1 |
| 940 | O=C(Nc1ccccc1F)N1CCC(N2C(=O)C3(CCCCC3)C2c2ccccc2)CC1 (configuration not stated) |
| 1310 | O=C(Nc1nc(-c2ccc(Cl)cc2)cs1)c1ccc(COc2ccccc2Cl)o1 |
| 690 | O=C(NCc1cccnc1-c1ccc(F)cc1)c1ccc(F)cc1F |
| 945 | O=C(c1ccc(Br)cc1)N1CCN(c2cc(-c3ccc(Cl)cc3)[nH]n2)CC1 |
| 920 | COc1cc2c(cc1C(=O)NCc1ccc3c(c1)CCCO3)OCCCO2 |
| 730 | COCCCNC(=O)N1CCCN(C2=NS(=O)(=O)C(c3ccc(C)cc3)=C2C)CC1 |
| 904 | Cn1cc(C2=CCN(S(=O)(=O)c3cccc(C#N)c3)CC2)c2cccnc21 |
| 1060 | CCCN1C(=O)COc2ccc(-c3csc(NC(=O)c4ccccc4C)n3)cc21 |

| RP-LC retention time [s] | Structure (SMILES) |
| --- | --- |
| 662 | CCn1nccc1C(=O)NCc1cccnc1OC |
| 594 | O=C(CCc1csc2nc(C3CC3)cn12)Nc1nc2ccccc2s1 |
| 731 | CC(C)(C)NC(=O)c1ccc(-c2nnc3ccc(NC(=O)C4CC4)cn23)cc1 |
| 854 | O=C(NCc1ccc2c(c1)OCO2)c1nnc(-c2ccc(S(=O)(=O)N3CCCC3)cc2)o1 |
| 769 | CCN(CC)CCCC(C)Nc1nc(C)nc2cc(Cl)ccc12 (configuration not stated) |
| 621 | Cc1ccc(N2CCN(Cc3c(C)noc3C)CC2)cc1 |
| 1070 | Cc1ccccc1-c1noc(-c2ccc(S(=O)(=O)N3CCCC3)o2)n1 |
| 727 | O=C(NCCS(=O)(=O)N1CCN(c2ncccn2)CC1)c1cc2ccccc2o1 |
| 842 | O=C(Cn1c(=O)c(CCC(=O)NC2CCCC2)nc2ccccc21)NCc1ccccc1Cl |
| 869 | Cc1cccc(C2CCCN2C(=O)c2cnn3cc(Br)cnc23)c1 (configuration not stated) |
| 878 | O=c1c2scc(-c3ccc(Cl)cc3)c2ncn1Cc1cc(=O)n2ccccc2n1 |
| 860 | COc1ccc(CNC(=O)CCc2conc2-c2ccc(F)cc2)cc1 |
| 648 | CCCNc1cc(N2CCC(CCC(=O)Nc3ccc(OC)c(OC)c3)CC2)ncn1 |
| 907 | O=C(NCC(O)C1CCCCC1)C(c1ccccc1)c1ccccc1 (configuration not stated) |
| 942 | CC(C)NC(=O)N(CC(=O)N1CCc2sccc2C1COc1cccc(F)c1)C1CC1 (configuration not stated) |
| 1020 | O=c1ccc(-c2cccc(Br)c2)nn1Cc1nc(-c2cccs2)no1 |
| 696 | COc1ccc(CN(Cc2ccccc2)Cc2cc(=O)n3cc(C)ccc3n2)cc1 |
| 838 | CCCn1cc(S(=O)(=O)Nc2ccccc2)c2cccnc21 |
| 1080 | COc1c(/C=N/NC(N)=O)c(OC)c(OC)c2c1CCO2 |
| 566 | COc1cccc(-c2csc(CN3CCNCC3)n2)c1 |
| 627 | COC(=O)c1c(C)[nH]c(C(=O)N2CCCC(C(=O)NC3CC3)C2)c1C (configuration not stated) |
| 904 | COc1ccc(-c2nc(CCS(=O)(=O)c3ccc(C)cc3)no2)cc1OC |
| 589 | Cc1ccc2ccc3ccc(C)nc3c2n1 |

| RP-LC retention time [s] | Structure (SMILES) |
| --- | --- |
| 669 | CC(C)C(=O)Nc1ccc(CCc2nc3ccc(C(=O)NCc4ccc5c(c4)OCO5)cc3[nH]2)cc1 |
| 849 | O=C(NCc1cccs1)N1CCN(c2nc3c(F)cc(F)cc3s2)CC1 |
| 652 | Cc1nc2cc(-c3ccccc3)nn2c(C)c1CCC(=O)N1CCN(c2ccccn2)CC1 |
| 1000 | O=C(NCc1ccc2c(c1)OCO2)c1cnn2c3c(cnc12)CCCCCC3 |
| 688 | NC(=O)Cc1csc(NC(=O)c2csc(Nc3ccc(OC(F)F)cc3)n2)n1 |
| 915 | Cc1nc(Cn2cccc2C(=O)Nc2cc(Cl)ccc2C)no1 |
| 866 | Cc1noc(-c2cc(=O)n(CC(=O)NCc3ccccc3Cl)c3ccccc23)n1 |
| 981 | CCOc1ccc(NC(=O)Cn2c(=O)n(-c3ccccc3)c(=O)c3sc(SCC)nc32)cc1 |
| 892 | Cc1cc(C)cc(C(=O)N2CC3CN(S(=O)(=O)c4ccccc4)CC(C2)O3)c1 |
| 1110 | Cc1ccc(C)c(-c2nc(-c3cccc(-c4ccnn4C)c3)no2)c1 |
| 1050 | Cn1nc(-c2nc(-c3ccccc3)no2)c2c1CCN(C(=O)Nc1cccc(Cl)c1)C2 |
| 589 | CCN(CC)CCNC(=O)c1cc2n(n1)CC(C)(C(=O)NCc1ccc(F)cc1)N(C)C2=O (configuration not stated) |
| 819 | O=C(NCCCn1cccn1)C1CN(S(=O)(=O)c2ccccc2)CC12CCCCC2 (configuration not stated) |
| 728 | Cc1ccc(NC(=O)N2CCC(c3cc(N)on3)CC2)cc1C |
| 617 | COc1ccc(NC(=O)N2CCC(n3cnc4cccnc43)CC2)cc1 |
| 960 | Cc1ccc(-c2ccc3nn(CC(=O)Nc4ccc(C)cc4Br)c(=O)n3n2)cc1 |
| 696 | Cc1ccc(N2CCCS2(=O)=O)cc1NC(=O)C1CCCC1 |
| 582 | CCC(=O)N1CCc2sc(C(=O)N3CCN(c4ccccn4)CC3)cc2C1 |
| 1060 | Cc1cc(C)cc(-c2nc(-c3ccc4c(c3)oc(=O)n4C)no2)c1 |
| 764 | O=C(NCc1ccccc1F)C1CCN(c2nnc3ccc(C(F)(F)F)cn23)CC1 |
| 653 | COc1cc(Nc2ncc(F)c(Nc3ccc4c(n3)N(COP(=O)(O)O)C(=O)C(C)(C)O4)n2)cc(OC)c1OC |
